Experimental data taken from patent US7291609B2, “Specific glucocorticosteroid compound having anti-inflammatory activity” (Glaxo Group Limited, priority 2003, dated 2007).

Tests used:
Type in all cases: cell-based
glucocorticoid receptor [1] = target: T1, glucocorticoid receptor (Homo sapiens, UniProt P04150); assay: NF-κB transrepression reporter assay (ELAM promoter-sPAP) in A549 cells; details: compound 1 hour at 37° C., then TNF 10 ng/ml for 16 hours, read-out: EC50 (transrepressive activity)
T1 construct: A549 cells stably transfected with a reporter gene; endogenous in cells; host or cells: A549 cells (stably transfected with a reporter gene only)
T1 sequence (P04150 1-777): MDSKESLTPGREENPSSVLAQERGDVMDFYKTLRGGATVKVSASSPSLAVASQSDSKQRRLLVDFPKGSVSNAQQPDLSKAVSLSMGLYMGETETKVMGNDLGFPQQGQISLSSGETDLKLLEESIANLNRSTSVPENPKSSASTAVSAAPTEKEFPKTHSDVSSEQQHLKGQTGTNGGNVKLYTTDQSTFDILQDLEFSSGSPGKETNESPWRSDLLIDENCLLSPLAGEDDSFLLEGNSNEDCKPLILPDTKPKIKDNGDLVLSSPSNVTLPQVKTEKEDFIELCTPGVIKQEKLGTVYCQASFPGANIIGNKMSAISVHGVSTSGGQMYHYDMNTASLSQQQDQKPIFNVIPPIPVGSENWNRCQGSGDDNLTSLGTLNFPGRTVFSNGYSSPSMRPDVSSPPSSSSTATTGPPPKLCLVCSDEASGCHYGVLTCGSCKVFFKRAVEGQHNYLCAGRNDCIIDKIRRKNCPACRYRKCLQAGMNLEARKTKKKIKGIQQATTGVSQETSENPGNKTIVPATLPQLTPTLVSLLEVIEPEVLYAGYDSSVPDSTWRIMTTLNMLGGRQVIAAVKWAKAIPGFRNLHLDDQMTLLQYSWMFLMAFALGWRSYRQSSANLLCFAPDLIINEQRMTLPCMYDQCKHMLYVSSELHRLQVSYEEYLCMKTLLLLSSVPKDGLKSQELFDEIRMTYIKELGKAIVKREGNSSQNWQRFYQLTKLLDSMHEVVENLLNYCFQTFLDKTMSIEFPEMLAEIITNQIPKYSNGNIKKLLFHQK
Description: The functional assay based on that described by K. P. Ray et al., Biochem J. (1997), 328, 707-715 provides a measure of transrepressive activity of a glucocorticoid agonist. A549 cells stably transfected with a reporter gene containing the NF-κB responsive elements from the ELAM gene promoter coupled to sPAP (secreted alkaline phosphatase) are treated with test compounds at appropriate doses for 1 hour at 37° C. The cells are then stimulated with tumour necrosis factor (TNF, 10 ng/ml) for 16 hours, at which time the amount of alkaline phosphatase produced is measured by a standard colourimetric assay. Dose response curves are constructed from which EC50 values may be estimated.

glucocorticoid receptor [2] = target: T1, glucocorticoid receptor; assay: MMTV-LTR renilla luciferase transactivation reporter assay in A549 cells; details: 6 hour at 37° C., read-out: maximal response relative to Dexamethasone (100%)
Description: The functional assay based on that described by R. J. H. Austin et al., Eur Resp J. (2002), 20, 1386-1392 measures the ability of compounds to directly transactivate gene expression. A549 cells stably transfected with a reporter gene containing the glucocorticoid responsive region of the mouse mammary tumour virus long terminal repeat (MMTV-LTR) coupled to renilla luciferase were treated with test compounds at appropriate doses for 6 hour at 37° C. The amount of luciferase activity present within the cells is then determined by measuring the light emitted following incubation with a suitable substrate.

Progesterone Receptor = target: T2, Progesterone Receptor (Homo sapiens, UniProt P06401); assay: Assay for progesterone receptor activity (alkaline phosphatase in T47D cells); details: T47D human breast cancer cells, 24 hours at 37° C.; read-out: EC50 (alkaline phosphatase upregulation)
T2 construct: T47D cells were seeded into 96 well plates; endogenous in cells; host or cells: T47D human breast cancer cells
T2 sequence (P06401 1-933): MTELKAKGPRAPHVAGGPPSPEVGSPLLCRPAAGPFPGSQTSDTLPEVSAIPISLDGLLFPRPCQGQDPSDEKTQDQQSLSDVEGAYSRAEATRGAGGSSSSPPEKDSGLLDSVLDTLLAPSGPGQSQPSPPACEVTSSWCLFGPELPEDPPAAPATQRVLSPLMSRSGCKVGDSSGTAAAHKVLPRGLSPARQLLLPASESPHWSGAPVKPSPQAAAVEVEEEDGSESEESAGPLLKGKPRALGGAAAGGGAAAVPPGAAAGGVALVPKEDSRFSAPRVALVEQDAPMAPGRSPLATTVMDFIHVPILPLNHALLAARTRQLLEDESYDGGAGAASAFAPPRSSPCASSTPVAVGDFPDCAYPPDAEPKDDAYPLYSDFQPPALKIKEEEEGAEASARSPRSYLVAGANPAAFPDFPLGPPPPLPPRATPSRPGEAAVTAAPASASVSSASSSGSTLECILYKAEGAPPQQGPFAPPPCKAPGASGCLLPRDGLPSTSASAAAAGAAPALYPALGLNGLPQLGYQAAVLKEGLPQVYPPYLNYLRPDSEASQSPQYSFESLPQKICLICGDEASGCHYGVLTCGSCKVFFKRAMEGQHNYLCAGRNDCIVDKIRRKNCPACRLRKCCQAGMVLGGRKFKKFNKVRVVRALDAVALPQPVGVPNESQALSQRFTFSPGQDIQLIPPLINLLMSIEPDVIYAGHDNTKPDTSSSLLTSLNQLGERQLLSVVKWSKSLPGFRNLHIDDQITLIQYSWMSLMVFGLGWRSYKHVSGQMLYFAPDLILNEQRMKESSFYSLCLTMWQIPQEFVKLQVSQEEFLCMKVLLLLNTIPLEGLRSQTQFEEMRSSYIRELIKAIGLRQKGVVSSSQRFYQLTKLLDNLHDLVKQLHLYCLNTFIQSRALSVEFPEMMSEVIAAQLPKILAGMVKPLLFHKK

EC50 (glucocorticoid receptor [1]): < 0.1 nM
Emax (glucocorticoid receptor [2]): < 5%
EC50 (Progesterone Receptor): > 100 nM
Structure (SMILES): C[C@@H]1C[C@H]2[C@@H]3C[C@H](F)C4=CC(=O)C=C[C@]4(C)[C@@]3(F)[C@@H](O)C[C@]2(C)[C@@]1(OC(=O)C1C(C)(C)C1(C)C)C(=O)OCC#N [Example 1, 6α,9α-Difluoro-11β-hydroxy-16α-methyl-3-oxo-17α-(2,2,3,3-tetramethycyclopropylcarbonyl)oxy-androsta-1,4-diene-17β-carboxylic acid cyanomethyl ester]
